Results on 8 compounds are retold here after patent US20190390169A1, “PANCREATIC PROGENITOR CELL PRODUCTION METHOD” (Kyoto University, priority 2017, published 2019).

Usually inhibition stands for the relative decrease from the control value, in per cent.

Experiment [1] concerns Ff-WJ-18 cells (human iPS cells). The experiment in a line: Induction of differentiation of iPS cells into pancreatic progenitor cells at stage 4, flow cytometry. The class given is cell-based. The settings on record: stage 4, 4 days, 0.00001 μM to 1 μM, medium with or without ROCK inhibitor Y-27632, vs negative control (FIG. 2, FIG. 3). The protocol:
The human iPS cells used were Ff-WJ-18 cells (Kyoto University). The Ff-WJ-18 cells maintenance-cultured according to Reference Example 1 were induced to differentiate into pancreatic progenitor cells by the following procedures. Culture was performed at 37° C. under 5% CO2 in all cases, and the culture container used was coated with iMatrix-511(TM) (Nippi).
Ff-WJ-18 cells (70,000 cells/9.6 cm^2) were seeded to RPMI1640 medium containing 1% penicillin/streptomycin, 1% B27, activin A (100 ng/mL), CHIR99021 (3 μM), and Y-27632 (10 μM), and cultured for 1 day. The cells were further cultured for 2 days in RPMI1640 medium containing 1% penicillin/streptomycin, 1% B27, and activin A (100 ng/mL) with the medium replaced with a fresh one every day.
The resulting cells were cultured for 4 days using instead iMEM medium containing 1% penicillin/streptomycin, 1% B27, and KGF (50 ng/mL). […]
The cells after the culture at stage 4 were collected, and the proportion of NKX6.1-positive/PDX-1-positive cells was determined by flow cytometry. Likewise, the proportion of the cells was determined as to iPS cells and cells before the culture at stage 4 (s3d2: stage 3, day 2). […]
Also, an effect was compared between a factor having CDK1/2-inhibiting activity and a factor having CDK8/19-inhibiting activity by a similar method. […] The proportion of NKX6.1-positive/PDX-1-positive cells was determined.
In general terms: A flow cytometer gives signals particle by particle.

In experiment [2] the target is T1, CDK8/CycC (Homo sapiens, UniProt P49336).
T1 construct: purchased Carna Biosciences
The experiment in a line: CDK8-inhibiting activity (Kinase Tracer-236 / Eu-anti-GST fluorescence assay). The class given is binding. Conditions: read-out: rate of inhibition of CDK8; for inhibition at 1 µM: 1 μM test compound; for inhibition at 10 µM: 10 μM test compound. The method, then: (§1) Test compounds were evaluated for their CDK8-inhibiting activity and CDK19-inhibiting activity by the following method.
(§2) Each test compound dissolved in dimethyl sulfoxide was diluted with an assay buffer (25 mM HEPES, 10 mM MgCl2, 2 mM DL-dithiothreitol, 0.01% Tween-20) to obtain a primary dilution having a DMSO concentration of 3%. The primary dilution was dispensed at 2 μL/well to a 384-well plate. Then, a mixed solution of Eu^3+ Cryptate conjugated mouse monoclonal antibody anti-glutathione S-transferase (CisBio) diluted 267-fold with an assay buffer and 60 nM Kinase Tracer-236 (Life Technologies) was added at 2 μL/well. After the addition, a kinase solution (84 ng/mL CDK8/CycC (Carna Biosciences) diluted with an assay buffer was used for CDK8-inhibiting activity measurement, and 87 ng/mL CDC2L6/CycC (Carna Biosciences) diluted with an assay buffer was used for CDK19-inhibiting activity measurement) was further added at 2 μL/well. After the addition, the plate was left standing at room temperature for 1 hour, followed by the measurement of fluorescence intensity (excitation wavelength: 320 nm, fluorescence wavelength: 615 nm, 665 nm, delay time: 50 μsec) using a plate reader EnVision (Perkin Elmer).
(§3) When the fluorescence intensity of a reaction solution under compound non-addition conditions was used as a control and the fluorescence intensity of a reaction solution under 10 μM control compound addition conditions was used as a blank, the rate of inhibition of CDK8 or CDK19 by the test compound can be calculated according to the following expression:
(§4) Rate of inhibition (%)=(1−(Fluorescence intensity of the test compound−Blank)/(Control−Blank))×100
(§5) The control compound used was commercially available 4-(4-(2,3-dihydro-1,4-benzodioxin-6-yl)-1H-pyrazol-3-yl)benzene-1,3-diol.

The target in experiment [3] is T2, CDC2L6/CycC (CDK19) (Homo sapiens, UniProt Q9BWU1).
T2 construct: purchased Carna Biosciences
The experiment in a line: CDK19-inhibiting activity (Kinase Tracer-236 / Eu-anti-GST fluorescence assay). The experiment is classed as binding. The settings on record: read-out: rate of inhibition of CDK19; for inhibition at 1 µM: 1 μM test compound; for inhibition at 10 µM: 10 μM test compound. The protocol: as §1, §2, §3, §4, §5

Structures are written as SMILES. Structures can show the parent of a compound that is named as a salt.

T1 sequence (P49336 whole entry): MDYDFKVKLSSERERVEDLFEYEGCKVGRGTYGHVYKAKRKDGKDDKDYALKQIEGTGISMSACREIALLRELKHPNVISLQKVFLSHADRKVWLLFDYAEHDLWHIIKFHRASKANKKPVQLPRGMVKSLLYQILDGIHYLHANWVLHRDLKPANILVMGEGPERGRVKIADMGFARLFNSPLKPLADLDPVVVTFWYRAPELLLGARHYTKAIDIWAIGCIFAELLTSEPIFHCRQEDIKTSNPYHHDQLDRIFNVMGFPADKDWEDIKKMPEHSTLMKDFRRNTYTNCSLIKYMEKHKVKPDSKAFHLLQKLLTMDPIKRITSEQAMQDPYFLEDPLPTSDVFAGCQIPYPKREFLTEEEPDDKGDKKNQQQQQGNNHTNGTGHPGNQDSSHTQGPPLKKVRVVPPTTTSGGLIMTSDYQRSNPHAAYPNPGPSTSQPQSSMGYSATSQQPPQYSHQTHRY
T1 sequence (P24863 whole entry partner): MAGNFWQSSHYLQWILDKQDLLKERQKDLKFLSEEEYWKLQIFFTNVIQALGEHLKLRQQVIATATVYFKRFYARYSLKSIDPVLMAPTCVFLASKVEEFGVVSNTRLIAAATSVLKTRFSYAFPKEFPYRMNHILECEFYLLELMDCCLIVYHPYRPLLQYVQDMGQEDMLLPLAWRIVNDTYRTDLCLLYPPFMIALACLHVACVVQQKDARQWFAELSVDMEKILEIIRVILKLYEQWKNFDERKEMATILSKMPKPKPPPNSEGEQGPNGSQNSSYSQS
T2 sequence (Q9BWU1 whole entry): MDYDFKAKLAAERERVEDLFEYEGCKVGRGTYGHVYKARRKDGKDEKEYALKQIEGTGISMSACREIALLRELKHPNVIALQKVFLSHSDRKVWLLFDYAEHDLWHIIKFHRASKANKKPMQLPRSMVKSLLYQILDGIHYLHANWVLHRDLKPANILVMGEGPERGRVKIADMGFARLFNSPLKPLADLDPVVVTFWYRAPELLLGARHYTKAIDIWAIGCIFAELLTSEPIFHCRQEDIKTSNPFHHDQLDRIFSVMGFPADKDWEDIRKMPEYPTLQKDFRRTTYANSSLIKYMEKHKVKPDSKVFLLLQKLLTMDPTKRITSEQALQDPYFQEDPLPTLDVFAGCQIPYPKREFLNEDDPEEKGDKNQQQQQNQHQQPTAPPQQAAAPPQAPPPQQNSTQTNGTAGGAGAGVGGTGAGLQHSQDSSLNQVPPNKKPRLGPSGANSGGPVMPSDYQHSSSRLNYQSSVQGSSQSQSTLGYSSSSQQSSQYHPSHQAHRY
T2 sequence (P24863 whole entry partner): as the sequence (P24863 whole entry partner) above

Consider `Nc1nc(Nc2ccc(S(N)(=O)=O)cc2)nn1C(=S)Nc1c(F)cccc1F` [CAS443798-55-8], for which the “proportion of NKX6.1-positive/PDX-1-positive cells” value in experiment [1] was “efficient induction of differentiation into pancreatic progenitor cells was not observed”.

Consider `Cn1ncc2c1-c1c(Oc3ccc(F)cc3F)sc(C(N)=O)c1CC2` [Compound 1, 8-(2,4-Difluorophenoxy)-1-methyl-4,5-dihydro-1H-thieno[3,4-g]indazole-6-carboxamide], for which the figures for the inhibition at 1 µM in experiment [2] and in experiment [3] were 97% and 99%, respectively. The results for the inhibition at 10 µM in experiment [2] and in experiment [3] were 94% and 96%, respectively.

Turning to `O=C1Nc2ccccc2N(S(=O)(=O)c2ccc(F)cc2)C1CCSc1ccc2nccn2n1` (centres unmarked) [Compound 2, 4-((4-Fluorophenyl)sulfonyl)-3-(2-(imidazo[1,2-b]pyridazin-6-ylsulfanyl)ethyl)-3,4-dihydroquinoxalin-2(1H)-one], in experiment [2], the inhibition at 1 µM is 100% and the inhibition at 10 µM turned out to be 100%. Moreover, in experiment [3], the inhibition at 1 µM was 102% and the inhibition at 10 µM came out at 103%.

With `NC(=O)c1ccc(-c2c[nH]c3ncccc23)cc1NCc1ccccc1` [Compound 3, 2-(Benzylamino)-4-(1H-pyrrolo[2,3-b]pyridin-3-yl)benzamide], in experiment [2], the inhibition at 1 µM is 101% and the inhibition at 10 µM stood at 105%. In addition, in experiment [3], the inhibition at 1 µM stood at 101% and the inhibition at 10 µM is 104%.

In the case of `c1ccc(COc2cccc(-c3c[nH]c4ncccc34)c2)cc1` [Compound 4, 3-(3-(Benzyloxy)phenyl)-1H-pyrrolo[2,3-b]pyridine], in experiment [2], the inhibition at 1 µM came to 91% and the inhibition at 10 µM is 102%. In addition, in experiment [3], the inhibition at 1 µM was 94% and the inhibition at 10 µM was determined as 101%.

For the compound `Oc1ccc(-c2n[nH]cc2-c2ccc3c(c2)OCCO3)c(O)c1` [Compound 5, 4-(4-(2,3-Dihydro-1,4-benzodioxin-6-yl)-1H-pyrazol-3-yl)benzene-1,3-diol, reference compound], in experiment [2], the inhibition at 1 µM is 87% and the inhibition at 10 µM turned out to be 100%. In experiment [3], the inhibition at 1 µM was 86% and the inhibition at 10 µM turned out to be 100%.

On to `CCCCNC(=O)c1ccc2cncc(-c3ccc(OC)cc3)c2n1` [Compound 6, N-Butyl-8-(4-methoxyphenyl)-1,6-naphthyridine-2-carboxamide trifluoroacetate], for which the inhibition at 1 µM worked out at 103% in experiment [2] and 100% in experiment [3]. Further, the inhibition at 10 µM in experiment [2] came out at 102%; in experiment [3] it was 100%.

As for `CCCN(CCC)C(=O)c1ccc2cncc(-c3ccc(C)cc3)c2n1` [Compound 7, 8-(4-Methylphenyl)-N,N-dipropyl-1,6-naphthyridine-2-carboxamide trifluoroacetate], the inhibition at 1 µM was 92% in experiment [2] and 83% in experiment [3]. In addition, the inhibition at 10 µM in experiment [2] was determined as 104%; in experiment [3], 100%.
